We go through four molecules from publication PMC9562916, “Investigation of the Phenolic Component Bioavailability Using the In Vitro Digestion/Caco-2 Cell Model, as well as the Antioxidant Activity in Chinese Red Wine” (Foods, 2022).

Marks after values point to notes of the source that are not given here.

Tested on in one series: not listed separately
The series is described as follows: PC content of red wine before and after in vitro simulated gastrointestinal digestion (HPLC). In kind it is in vitro ADME.
Settings: not given
The method, then: The digestion procedure was carried out by adapting the method of Brodkorb et al. and Gómez et al.. […] One milliliter (50 units/mL) of porcine amylase was prepared in a 15 mM Na₃PO₄ buffer solution (pH adjusted to 6.8) containing 1.5 mM CaCl2, and it was added to the red wine solution. After 5 min, 4.5 mL of 0.12 M HCl was added to the mixture to adjust the pH to 2.4. One milliliter of porcine pepsin (0.02 mg/L) was dissolved in a 20 mM HCl solution. The mixture was then maintained at 37 °C for 120 min. The digestion mixture was then centrifuged at 8000× g for 15 min to obtain samples from the gastric digestion phase. […] The mixture was incubated at pH 6.5 at 37 °C for 3 h before being centrifuged. The extracts of the intestinal phase were the supernatants. The same operation was done three times, and each sample was stored in a refrigerator (−20 °C) immediately for further analysis.
The Pati method was adopted, with slight modifications, to measure the content of the PCs. The Agilent 1100 series HPLC instrument was used; it was equipped with a degasser, quaternary pump solvent delivery, a DAD system, and a single quadrupole mass detector coupled with an electrospray ionization LC–MS interface. Briefly, th samples were injected into a Zorbax SB C18 reversed-phase column (5 µm,150 × 2.1 mm, Agilent Technologies, Santa Clara, CA, USA) using an autosampler after filtering through 0.45 µm cellulose acetate syringe filters. The column temperature was kept at 30 °C, the injection volume was 10 µL, and the flow rate was 0.3 mL/min. The eluents were water and formic acid in a 99:1 (v/v) (A) ratio and 100% acetonitrile (B). […] The MS configuration was as follows: ESI, negative ion mode, nebulizer pressure of 30 psi, a dry gas flow rate of 10 mL/min, dry gas temperature of 350 °C, and a scan rate of 100~1200 m/z. PCs were determined according to their retention times, UV/VIS spectra, and high-resolution MS spectra, in addition to a comparison with the standards. […] Putative annotations were made using spectral features and literature information on the chromatographic properties and mass spectra records from the metabolome database. A standard curve was drawn using methanol solutions with different concentrations as the standards. The limits of detection and quantitation were calculated according to the signal-to-noise ratio (limit of detection: signal-to-noise ratio ≥ 3; limit of quantitation: signal-to-noise ratio ≥ 10). […] PCs All of the samples were determined in triplicate.
For `O.Oc1cc(O)c2c(c1)O[C@H](c1ccc(O)c(O)c1)[C@@H](O)C2` [Catechin], the “PC Contents, Cabernet, After Digestion” value is recorded as 25.4 ± 0.86 ^b mg/L; the “PC Contents, Helanshan, After Digestion” value is listed as 15.42 ± 0.83 ^b mg/L; the “PC Contents, Tianzhu, After Digestion” value is 16.7 ± 0.75 ^b mg/L.
Turning to `O=C(/C=C/c1ccc(O)cc1)O[C@@H](C(=O)O)[C@@H](O)C(=O)O` [Coutaric acid], the “PC Contents, Cabernet, After Digestion” value was 1.96 ± 0.08 ^b mg/L and the “PC Contents, Helanshan, After Digestion” value is 2.97 ± 0.15 ^b mg/L.
On to `COc1cc(/C=C/C(=O)OC(C(=O)O)C(O)C(=O)O)ccc1O` (centres unmarked) [Fertaric acid], for which the “PC Contents, Cabernet, After Digestion” value is 3.11 ± 0.12 ^b mg/L; the “PC Contents, Helanshan, After Digestion” value is given as 1.81 ± 0.10 ^c mg/L; the “PC Contents, Tianzhu, After Digestion” value is listed as 4.11 ± 0.18 ^c mg/L.
The like results for `COc1cc(-c2oc3cc(O)cc(O)c3c(=O)c2O[C@@H]2O[C@H](CO)[C@@H](O)[C@H](O)[C@H]2O)cc(O)c1O` [Laricitrin-3-glc] were, in that order, 29.78 ± 1.28 ^b mg/L, 18.76 ± 0.81 ^b mg/L and 28.63 ± 0.86 ^b mg/L.

The next series has as its system Caco-2 cell monolayer. The series can be described thus: Caco-2 transepithelial transport assay of digested red wine. In kind it is in vitro ADME, human. Conditions: Caco-2. The method, then:
Caco-2 cells were inoculated following the method of Hubatsch et al. […] Briefly, a 5% v/v of CO2 incubator at 37 °C was used to house the cells. […] Caco-2 cells were sub-cultured when they reached 80-90% of the adherent growth by treating them with a 0.05% v/v of trypsin-EDTA solution. The culture between passages 35 and 40 was used for the following experiment. Transport experiments were performed according to the method of Wu et al. with slight modifications. First, 1.0 × 10^5 Caco-2 cells were inoculated onto 12 mm transparent cell culture plates (Transwell). Media were carefully injected into the apical (0.5 mL) and basolateral (1.5 mL) sides of the Transwell plates. The cell culture medium had to be replaced every other day until the cells formed a monolayer. The integrity and transport ability of the Caco-2 cell monolayer were evaluated by measuring the trans-epithelial electrical resistance (TEER) with a MilliCell voltammeter (Millicell ERS-2, Merck Millipore, Billerica, MA, USA). […] When the cell activity exceeded 0.9, a transport experiment was conducted. The apical side was injected with a digested red wine sample (0.5 mL) and was thoroughly mixed with […] Balanced Salt Solution (HBSS) buffer solution. […] The cells were then cultured in a 37 °C, 5% CO2 incubator. Then, 0.25 mL samples were separately taken from the basolateral side of the monolayer. An equal volume of HBSS buffer was then added every half hour from the beginning of the culture until the end of the culture at 6 h. The collected samples were subsequently filtered and placed in the sample bottle for further HPLC analysis. This experiment was repeated several times to collect enough samples for the next antioxidant test. […] The Agilent 1100 series HPLC instrument was used; it was equipped with a degasser, quaternary pump solvent delivery, a DAD system, and a single quadrupole mass detector coupled with an electrospray ionization LC-MS interface. […] The column temperature was kept at 30 °C, the injection volume was 10 μL, and the flow rate was 0.3 mL/min. The eluents were water and formic acid in a 99:1 (v/v) (A) ratio and 100% acetonitrile (B). The gradient elution procedure was as follows: (1) 3% B solvent at 0 min, (2) 3 to 16% B solvent at 10 min, (3) 16 to 20% B solvent at 30 min, and (4) 20% B solvent maintained until the procedure was completed. The MS configuration was as follows: ESI, negative ion mode, nebulizer pressure of 30 psi, a dry gas flow rate of 10 mL/min, dry gas temperature of 350 °C, and a scan rate of 100~1200 m/z. PCs were determined according to their retention times, UV/VIS spectra, and high-resolution MS spectra, in addition to a comparison with the standards. […] If a standard was unavailable, a structurally related compound was used. Putative annotations were made using spectral features and literature information on the chromatographic properties and mass spectra records from the metabolome database. A standard curve was drawn using methanol solutions with different concentrations as the standards. […] PCs All of the samples were determined in triplicate.
On the technique in general: Passage across Caco-2 layers is used to estimate intestinal permeability.
Consider `O.Oc1cc(O)c2c(c1)O[C@H](c1ccc(O)c(O)c1)[C@@H](O)C2` [Catechin], for which the “Apparent Permeability Coefficients, Cabernet” value is given as 7.77 ± 1.14 ^a ×10^−6 cm/s; the “Apparent Permeability Coefficients, Helanshan” value was 7.69 ± 1.23 ^a ×10^−6 cm/s; the “Apparent Permeability Coefficients, Tianzhu” value is on record as 7.83 ± 1.17 ^a ×10^−6 cm/s.
`O=C(/C=C/c1ccc(O)cc1)O[C@@H](C(=O)O)[C@@H](O)C(=O)O` [Coutaric acid]: the “Apparent Permeability Coefficients, Cabernet” value is on record as 12.13 ± 1.19 ^a ×10^−6 cm/s; the “Apparent Permeability Coefficients, Helanshan” value is listed as 12.91 ± 1.32 ^a ×10^−6 cm/s; the “Apparent Permeability Coefficients, Tianzhu” value is 12.46 ± 1.42 ^a ×10^−6 cm/s; the “PC Contents, Cabernet, Transmembrane” value is 0.38 ± 0.02 ^a mg/L. Moreover, the “PC Contents, Helanshan, Transmembrane” value is reported as 0.61 ± 0.03 ^a mg/L and the “PC Contents, Tianzhu, Transmembrane” value is 0.64 ± 0.03 ^a mg/L.
On to `COc1cc(/C=C/C(=O)OC(C(=O)O)C(O)C(=O)O)ccc1O` (centres unmarked) [Fertaric acid], for which the “Apparent Permeability Coefficients, Cabernet” value was 28.2 ± 4.11 ^a ×10^−6 cm/s; the “Apparent Permeability Coefficients, Helanshan” value is reported as 27.9 ± 3.64 ^a ×10^−6 cm/s; the “Apparent Permeability Coefficients, Tianzhu” value is reported as 27.6 ± 3.89 ^a ×10^−6 cm/s; the “PC Contents, Cabernet, Transmembrane” value is recorded as 1.40 ± 0.07 ^a mg/L. In addition, the “PC Contents, Helanshan, Transmembrane” value is 0.81 ± 0.04 ^a mg/L and the “PC Contents, Tianzhu, Transmembrane” value is 0.82 ± 0.03 ^a mg/L.
With `COc1cc(-c2oc3cc(O)cc(O)c3c(=O)c2O[C@@H]2O[C@H](CO)[C@@H](O)[C@H](O)[C@H]2O)cc(O)c1O` [Laricitrin-3-glc], the “Apparent Permeability Coefficients, Cabernet” value is recorded as 1.76 ± 0.17 ^a ×10^−6 cm/s; the “Apparent Permeability Coefficients, Helanshan” value is reported as 1.83 ± 0.16 ^a ×10^−6 cm/s; the “Apparent Permeability Coefficients, Tianzhu” value is reported as 1.79 ± 0.13 ^a ×10^−6 cm/s; the “PC Contents, Cabernet, Transmembrane” value is reported as 0.84 ± 0.04 ^a mg/L. The “PC Contents, Helanshan, Transmembrane” value is on record as 0.55 ± 0.03 ^a mg/L and the “PC Contents, Tianzhu, Transmembrane” value was 5.70 ± 0.29 ^a mg/L.
